Data taken from ChEMBL document CHEMBL1201862, “PubChem BioAssay data set” (2004).
The source made the active and inactive calls.

How the values were obtained:
cells [1] = assay: cells
[2] = viability of uninfected HEp-2 cells – cell-based, HTS, cytotoxicity control for RSV inhibitor project, dose response (AID 2410); type: functional; conditions: human respiratory syncytial virus
[3] = A Cell Based Secondary Assay To Explore Cytotoxicity of Compounds that Sensitize Mycobacterium Tuberculosis to Beta-Lactam Antibiotics.; type: functional
[4] = target: G-protein coupled receptor 55 (Homo sapiens, UniProt Q9Y2T6); assay: inhibition of LPI-stimulated GPR55 beta-arrestin translocation – imaging, U2OS, beta-arrestin-GFP, LPI agonist, primary screen (AID 2013); type: functional;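 note: antagonist potency measured as reduced agonist-driven arrestin aggregation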
[5] = target: Luciferin 4-monooxygenase (Photinus pyralis, UniProt P08659); assay: Counter Screen for Luciferase-based Assay Positives. [Related pubchem assays: 620, 618, 411 ]
HT-1080 = assay: HT1080 cell viability loss – fluorescence readout (AID 620); type: functional, cell-based; conditions: Homo sapiens
Protein skinhead-1 = target: T1, Protein skinhead-1 (Caenorhabditis elegans, UniProt P34707); type: functional
T1 sequence (P34707 whole entry): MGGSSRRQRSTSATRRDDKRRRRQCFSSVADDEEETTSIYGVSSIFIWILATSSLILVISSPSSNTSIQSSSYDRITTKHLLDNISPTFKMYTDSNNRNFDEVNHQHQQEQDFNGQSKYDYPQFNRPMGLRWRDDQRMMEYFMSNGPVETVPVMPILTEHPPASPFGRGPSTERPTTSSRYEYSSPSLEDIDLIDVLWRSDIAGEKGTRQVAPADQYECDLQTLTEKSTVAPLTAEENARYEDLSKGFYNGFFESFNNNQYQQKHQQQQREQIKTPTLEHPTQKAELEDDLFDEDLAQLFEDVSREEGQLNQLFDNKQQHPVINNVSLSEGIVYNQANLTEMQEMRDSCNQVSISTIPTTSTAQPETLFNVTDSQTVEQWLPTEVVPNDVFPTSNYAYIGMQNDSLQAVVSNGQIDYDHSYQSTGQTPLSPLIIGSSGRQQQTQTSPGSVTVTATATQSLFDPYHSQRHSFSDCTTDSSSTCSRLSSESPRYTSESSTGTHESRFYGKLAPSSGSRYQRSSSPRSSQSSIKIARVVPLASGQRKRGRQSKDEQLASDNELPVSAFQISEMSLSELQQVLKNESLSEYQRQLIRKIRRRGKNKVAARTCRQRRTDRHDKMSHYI

[6] = target: Eukaryotic translation initiation factor 4E (Mus musculus, UniProt P63073); assay: blockers of eIF4G binding by eIF4E – biochemical, TR-FRET, dose response (AID 855); type: functional;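 note: potency for disrupting eIF4E binding to eIF4GI seen as loss of FRET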
Coagulation factor XII = target: T2, Coagulation factor XII (Homo sapiens, UniProt P00748); assay: activated coagulation factor XII inhibitor potency, concentration-effect curve, cell-free (AID 716); type: functional
T2 sequence (P00748 whole entry): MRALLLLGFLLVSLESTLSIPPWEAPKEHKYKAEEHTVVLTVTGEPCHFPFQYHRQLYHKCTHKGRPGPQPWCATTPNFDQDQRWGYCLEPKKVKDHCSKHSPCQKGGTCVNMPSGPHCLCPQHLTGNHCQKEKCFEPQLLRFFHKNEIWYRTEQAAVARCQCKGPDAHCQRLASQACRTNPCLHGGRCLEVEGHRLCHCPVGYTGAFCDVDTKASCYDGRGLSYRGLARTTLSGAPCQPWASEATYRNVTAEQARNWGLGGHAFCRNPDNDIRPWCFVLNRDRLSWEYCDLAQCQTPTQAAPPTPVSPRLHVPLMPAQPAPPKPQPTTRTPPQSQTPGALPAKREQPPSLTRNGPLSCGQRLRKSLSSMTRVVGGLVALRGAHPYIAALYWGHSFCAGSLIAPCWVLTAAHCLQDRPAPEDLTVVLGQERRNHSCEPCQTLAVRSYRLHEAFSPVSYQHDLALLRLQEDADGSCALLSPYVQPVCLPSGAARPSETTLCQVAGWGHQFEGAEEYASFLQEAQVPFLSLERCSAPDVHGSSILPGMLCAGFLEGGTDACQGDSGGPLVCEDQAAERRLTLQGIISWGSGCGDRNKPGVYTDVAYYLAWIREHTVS

HeLa = assay: viability loss in HeLa cells – cell-based, 24 h, cherry-picked samples, cytotoxicity control, dose response (AID 504726); type: functional; conditions: Homo sapiens;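 note: potency for cytotoxicity as loss of luminescence signal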
[7] = NIH3T3 cell viability loss – ATP luminescence, mouse fibroblasts, counter-screen, dose response (AID 2010); type: functional, cell-based;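 note: cells exposed to compound for about 90 hours before reading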
cells [8] = type: functional
[9] = THP-1 cell cytotoxicity, dose response, cytotoxicity control for non-replicating M. tuberculosis project (AID 489025); type: functional
[10] = Trypanosoma cruzi growth suppression in host cells – NIH3T3 host cells, beta-gal luminescence, confirmation (AID 2044); type: functional, cell-based;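 note: intracellular parasites grown in NIH/3T3 mouse fibroblasts as host cells; luminescent beta-galactosidase reporter signal from transgenic T. cruzi replicating inside host cells; inhibitors lower the luminescence signal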
[11] = Vero E6 cell cytotoxicity, dose response, cytotoxicity control for non-replicating M. tuberculosis project, secondary assay (AID 492998); type: functional, VeroE6; conditions: Vero C1008

Sequence of Eukaryotic translation initiation factor 4E (P63073 whole entry): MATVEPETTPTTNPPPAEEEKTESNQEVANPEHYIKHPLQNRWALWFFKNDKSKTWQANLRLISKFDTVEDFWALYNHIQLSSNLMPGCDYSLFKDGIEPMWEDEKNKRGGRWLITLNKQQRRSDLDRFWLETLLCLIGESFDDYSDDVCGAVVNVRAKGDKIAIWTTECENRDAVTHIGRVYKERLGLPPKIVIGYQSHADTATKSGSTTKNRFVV
Sequence of Luciferin 4-monooxygenase (P08659 whole entry): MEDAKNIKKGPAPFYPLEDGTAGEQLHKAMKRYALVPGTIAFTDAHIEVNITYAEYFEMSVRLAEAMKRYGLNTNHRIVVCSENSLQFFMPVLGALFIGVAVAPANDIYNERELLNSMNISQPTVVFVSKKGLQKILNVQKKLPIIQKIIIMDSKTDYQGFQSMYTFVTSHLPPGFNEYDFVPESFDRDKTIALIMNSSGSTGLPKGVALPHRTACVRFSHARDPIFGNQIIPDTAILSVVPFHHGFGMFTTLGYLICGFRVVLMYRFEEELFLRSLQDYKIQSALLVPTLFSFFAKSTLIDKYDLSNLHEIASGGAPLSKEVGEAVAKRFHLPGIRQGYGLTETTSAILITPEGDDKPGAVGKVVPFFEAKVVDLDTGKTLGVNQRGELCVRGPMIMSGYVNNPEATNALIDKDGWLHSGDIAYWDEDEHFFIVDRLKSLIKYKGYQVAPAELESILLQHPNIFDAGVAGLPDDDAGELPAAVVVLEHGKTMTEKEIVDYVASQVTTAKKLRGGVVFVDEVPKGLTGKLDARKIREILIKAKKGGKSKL
Sequence of G-protein coupled receptor 55 (Q9Y2T6 whole entry): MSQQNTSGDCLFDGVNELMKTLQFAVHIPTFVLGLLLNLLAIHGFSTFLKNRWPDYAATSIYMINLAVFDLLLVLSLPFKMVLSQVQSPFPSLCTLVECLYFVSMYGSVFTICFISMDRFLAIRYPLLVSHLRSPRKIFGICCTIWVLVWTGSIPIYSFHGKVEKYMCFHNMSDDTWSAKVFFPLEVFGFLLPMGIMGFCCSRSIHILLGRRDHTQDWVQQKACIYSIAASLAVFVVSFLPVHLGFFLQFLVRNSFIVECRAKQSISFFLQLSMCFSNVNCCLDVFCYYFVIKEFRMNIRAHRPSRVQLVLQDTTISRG

Compound: COc1cc(/C=C/c2cc(C(=O)O)c3ccccc3n2)ccc1OC(F)F
- IC50 (cells [1]): 28.6 µM (active)
- CC50 [2]: 35.7 µM (active)

Compound: Cc1ccc(-c2nnc(O)c(O)c2N=Nc2ccccc2)cc1
- CC50 [3]: > 40 µM (active)

Compound: Cc1nc2ccc(S(=O)(=O)NC(C(=O)Nc3nc4ccc(Cl)cc4s3)C(C)C)cc2s1 (stereo unspecified)
- IC50 [4]: 0.894 µM (active)

Compound: c1ccc(-c2nc3cc4ccccc4cc3[nH]2)nc1
- EC50 [5]: 6.86 µM (active)
- EC50 (HT-1080): 14.6 µM (active)
- IC50 (Protein skinhead-1): 9.19 µM (active)

Compound: Cc1c(C(=O)N2CCN(S(=O)(=O)c3ccccc3F)CC2)oc2c(Cl)cccc12
- IC50 (cells [1]): > 50 µM (active)
- IC50 (Protein skinhead-1): > 100 µM (inactive)
- CC50 [2]: 31.6 µM (active)

Compound: NC1=NC(=O)/C(=C\c2ccsc2)S1
- IC50 [6]: 50 µM (inactive)

Compound: Cc1noc(C)c1COC(=O)Cc1ccc(Cl)cc1
- IC50 (Coagulation factor XII): > 50 µM (inactive)

Compound: COc1ccccc1CNC(=O)c1ccc(SC)cc1OC
- CC50 [3]: > 40 µM (active)
- CC50 [2]: > 50 µM (active)

Compound: Cc1cc(NC(=O)CCC(=O)N(CCC(C)C)C(C(=O)NC2CCCC2)c2cccnc2)no1 (stereo unspecified)
- AC50 (HeLa): > 350 µM (inactive)

Compound: O=C(N/N=C\c1ccc([N+](=O)[O-])o1)c1cncc(Br)c1
- EC50 [7]: > 60 µM (not active)
- AC50 (HeLa): > 350 µM (inactive)
- IC50 (cells [8]): 3.94 µM (active)
- CC50 [9]: 27.4 µM (active)
- EC50 [10]: 0.389 µM (active)
- CC50 [11]: > 20 µM (active)
